Where a name gives a salt, the structure may show the parent alone. Read-outs that look alike come from different tables or passages of the source.
Columns and labels:
[1] = system: human prostate cancer cells PC3; assay: MTT assay, survival/growth of cultured human prostate cancer cells PC3; format: cell-based; conditions: for EC50: figure legends, survival of cultured PC3 cells, MTT, six days after drug treatment, read-out: ED50 (the source's name); for IC50: read-out: concentration needed for 50% growth inhibition (ID50), Table 3, PC-3
Protocol: (§1) Human breast cancer cell line MCF7 was grown in Richter's Improved Modified Eagle's Medium supplemented with 10% fetal bovine serum (FBS) and 2.2 g/L sodium bicarbonate. Human brain tumor cell line U251 MG-NCI was grown in Dulbecco's Modified Eagle's Medium supplemented with 10% FBS. Human lung cancer cell line A549 was grown in Ham's F-12K medium (Cellgro, Mediatech, Inc., VA), supplemented with 10% FBS and 2 mM L-glutamine. Human colon cancer cell line HT29 was cultured in McCoy's 5A medium (Gibco, BRL, Gaithersburg, Md.) supplemented with 10% FBS. Human prostate cancer cell lines PC-3, LNCAP and DuPro were grown in RPMI 1640 Medium (Cellgro, Mediatech, Inc., VA) supplemented with 10% FBS. Another human prostate cancer cell line DU145 was grown in Dulbecco's Modified Eagle's Medium (Gibco, BRL, Gaithersburg, Md.) supplemented with 5% FBS. The A549, MCF7, PC3, LNCAP and DuPro cell lines were cultured in 100 units/mL penicillin and 100 μg/mL streptomycin. HT29 and U251MG cell lines were grown in 50 μg/mL gentamycin (Gibco, BRL, Gaithersburg, Md.). DU145 cell line was maintained in 1% antibitic-antimycotic solution (Sigma, St. Louis, Mo.). The cell cultures were maintained at 37° C. in 5% CO2/95% humidified air. DuPro cells were obtained from M. Eileen Dolan, University of Chicago. All other cells are available from the American Type Culture Collection, Rockville, Md.
(§2) A conventional MTT assay was used to evaluate percent cell survival. Exponentially growing monolayer cells were plated in 96-well plates at a density of 500 cells per well and allowed to grow for 24 hours. Serial dilutions of the drugs were added to the wells. Six days after drug treatment, 25 μl of MTT solution (5 mg/ml) was added to each well and incubated for 4 hours at 37° C. Then 100 μl of lysis buffer (20% sodium dodecyl sulfate, 50% DMF, and 0.8% acetic acid, pH 4.7) was added to each well and incubated for an additional 22 hours. A microplate reader (“EMAX”-brand, Molecular Devices, Sunnyvale, Calif.) set at 570 nm was used to determine the optical density of the cultures. Results are expressed as a ratio of the optical density in drug-treated wells to the optical density in wells treated with vehicle only.
(§3) Using the protocols of Example 2, the porphyrin-polyamine conjugates were tested for activity in vitro in various cancer cell lines.

[2] = system: human prostate cancer cells DU145; assay: MTT assay, survival/growth of cultured human prostate cancer cells DU145; format: cell-based; conditions: for EC50: figure legends, survival of cultured DU145 cells, MTT, six days after drug treatment, read-out: ED50 (the source's name); for IC50: read-out: concentration needed for 50% growth inhibition (ID50), Table 3, DU-145
Protocol: as §1, §2, §3

[3] = system: human prostate cancer cells DUPRO; assay: MTT assay, survival/growth of cultured human prostate cancer cells DUPRO; format: cell-based; conditions: for IC50: read-out: concentration needed for 50% growth inhibition (ID50), Table 3, DUPRO; for EC50: figure legends, survival of cultured DUPRO cells, MTT, six days after drug treatment, read-out: ED50 (the source's name)
Protocol: as §1, §2, §3

[4] = system: human prostate cancer cells LNCAP; assay: MTT assay, survival/growth of cultured human prostate cancer cells LNCAP; format: cell-based; conditions: figure legends, survival of cultured LNCAP cells, six days after drug treatment, read-out: ED50 (the source's name)
Protocol: as §1, §2, §3

[5] = system: human colon cancer cells HT29; assay: MTT assay, survival/growth of cultured human colon cancer cells HT29; format: cell-based; conditions: for IC50: read-out: concentration needed for 50% growth inhibition (ID50), Table 3, HT-29; for EC50: figure legends, survival of cultured HT29 cells, MTT, six days after drug treatment, read-out: ED50 (the source's name)
Protocol: (§4) As shown in Table 3 and FIGS. 1–32, several novel conformationally restricted polyamine analogs were tested for anti-proliferative properties against cancer cells.
as §1, §2

[6] = system: human lung cancer cells A549; assay: MTT assay, survival/growth of cultured human lung cancer cells A549; format: cell-based; conditions: for concentration needed for 50% growth inhibition (ID50) / IC50: Table 3, A549; for EC50: figure legends, survival of cultured A549 cells, MTT, six days after drug treatment, read-out: ED50 (the source's name); for IC50: read-out: concentration needed for 50% growth inhibition (ID50)
Protocol: as §4, §1, §2

[7] = system: human breast cancer cells MCF7; assay: MTT assay, survival/growth of cultured human breast cancer cells MCF7; format: cell-based; conditions: for IC50: read-out: concentration needed for 50% growth inhibition (ID50), Table 3, MCF7; for EC50: figure legends, survival of cultured MCF7 cells, MTT, six days after drug treatment, read-out: ED50 (the source's name)
Protocol: as §4, §1, §2

[8] = system: human brain tumor cells U251 MG NCI; assay: MTT assay, survival/growth of cultured human brain tumor cells U251 MG NCI; format: cell-based; conditions: for EC50: figure legends, survival of cultured U251 MG NCI cells, MTT, six days after drug treatment, read-out: ED50 (the source's name); for IC50: read-out: concentration needed for 50% growth inhibition (ID50), Table 3, U251MG
Protocol: as §1, §2

SMILES | EC50 [1] [nM] | IC50 [1] [nM] | EC50 [2] [nM] | IC50 [2] [nM] | IC50 [3] [nM] | EC50 [4] [nM] | IC50 [5] [nM] | EC50 [6] [nM] | IC50 [7] [nM] | EC50 [8] [nM] | EC50 ([1]; Homo sapiens, PC-3, 144 h) [nM] | IC50 ([1]; Homo sapiens) [nM] | EC50 ([2]; Homo sapiens, DU-145, 144 h) [nM] | IC50 ([2]; Homo sapiens) [nM] | EC50 ([3]; Homo sapiens, 144 h) [nM] | IC50 ([3]; Homo sapiens) [nM] | EC50 ([4]; Homo sapiens, 144 h) [nM] | IC50 ([5]; Homo sapiens) [nM] | EC50 ([6]; Homo sapiens, 144 h) [nM] | IC50 ([6]; Homo sapiens) [nM] | other results
CCNCCCCNCC1CC1CNCCCCNCC (centres unmarked) [SL-11098] | 1400 | 1400 | 20 | 18 | 80 | 170 | 400 | 290 | > 31200 | 100 |  |  |  |  |  |  |  |  |  |  | concentration needed for 50% growth inhibition (ID50) [6]: 510 nM; IC50 [8]: 100 nM
CCNC/C=C\CNC/C=C\CNC/C=C\CNCC [SL-11108] | 2200 | 2200 | 130 | 130 | 980 | 7700 | 2000 |  | > 31200 | 2000 |  |  |  |  |  |  |  |  |  |  | EC50 [3]: 980 nM; concentration needed for 50% growth inhibition (ID50) [6]: >31250 nM; IC50 [8]: 2000 nM
CCNC/C=C\CNCCCCNCCCCNCCCCNCC [SL-11121] |  |  |  |  |  |  |  |  |  |  | 520 | 520 | 80 | 80 | 400 | 400 | 140 | 800 | > 31200 | > 31200 | EC50 ([7]; Homo sapiens, 144 h): 17000 nM; IC50 ([7]; Homo sapiens): 17000 nM
CCNCCCCNCC1CC1CNCCCCNCC (centres unmarked) [SL-11093] | 1600 | 14300 | 16 | 10 | 60 | 210 | 400 | 260 | 660 | 70 |  |  |  |  |  |  |  |  |  |  | IC50 [6]: 260 nM; EC50 [7]: 660 nM
CCNC/C=C\CNCCCCNC/C=C\CNCC [SL-11114] |  |  |  |  |  |  |  |  |  |  | 700 | 700 | 130 | 135 | 640 | 640 | 3000 | 3600 | > 31200 | > 31200 | 
CCNCCCCNCC1CCC1CNCCCCNCC (centres unmarked) [SL-11100] | 4700 | 4700 | 21 | 21 | 290 | 700 | 2000 | 650 | > 31200 | 220 |  |  |  |  |  |  |  |  |  |  | EC50 [3]: 300 nM; concentration needed for 50% growth inhibition (ID50) [6]: 2200 nM; IC50 [8]: 220 nM
CCNCCCCNCCCCNCCCCNCCCCNCC [BE-4444, 1,19-bis(ethylamino)-5,10,15-triazanonadecane, reference compound] |  |  |  |  |  |  |  |  |  |  | 600 | 540 | 70 | 70 | 200 | 200 | 140 | 800 | > 31200 | 400 | EC50 ([5]; Homo sapiens, HT-29, 144 h): 500 nM; EC50 ([7]; Homo sapiens, 144 h): > 31200 nM; IC50 ([7]; Homo sapiens): > 31200 nM
CCNC/C=C\CNC/C=C\CNC/C=C\CNC/C=C\CNCC [SL-11126] |  |  |  |  |  |  |  |  |  |  | 200 | 200 | 510 | 510 | 1100 | 1100 | 550 | 1500 | > 31200 | > 31200 | EC50 ([7]; Homo sapiens, 144 h): 700 nM; IC50 ([7]; Homo sapiens): 700 nM
CCNC/C=C\CNCCCCNCCCCNCC [SL-11118] |  |  |  |  |  |  |  |  |  |  | 1650 | 1650 | 50 | 50 | 250 | 250 | 210 | 980 | 214 | 210 | 
CCNCCCCNCC1CCC1CNCCCCNCC (centres unmarked) [SL-11099] | 2500 | 2500 | 14 | 14 | 80 | 210 | 1000 | 510 | 26300 | 110 |  |  |  |  |  |  |  |  |  |  | EC50 [3]: 80 nM; concentration needed for 50% growth inhibition (ID50) [6]: 650 nM; EC50 [7]: 26300 nM; IC50 [8]: 110 nM
CCNC/C=C\CNCCCCNCCCCNC/C=C\CNCC [SL-11128] |  |  |  |  |  |  |  |  |  |  | 500 | 500 | 140 | 140 | 1280 | 1250 | 300 | 1350 |  |  | 
CCNCCCCNCCCCNCCCCNCC [BE-444, N1,N14-bis(ethyl) homospermine, reference compound] | 700 |  | 30 |  |  | 100 |  | 150 |  |  |  |  |  |  |  |  |  |  |  |  | EC50 [5]: 930 nM
CCNCCCCNCCCCNCCCCNCCCC1=C(C)c2cc3[nH]c(cc4nc(cc5[nH]c(cc1n2)c(CCCNCCCCNCCCCNCCCCNCC)c5C)C(CC)=C4C)c(CC)c3C (as salt: hydrochloride) [SL-11202] |  |  |  |  |  |  |  |  |  |  |  |  |  |  |  |  |  |  |  |  | melting point: 200 °C

— patent US7186825B2, “Conformationally restricted polyamine analogs as disease therapies” (Cellgate, Inc., priority 1999, dated 2007)
